Test results as given in US20250304567A1, “PYRROLIDIONE DERIVATIVES AS INHIBITORS OF NF KAPPA B INDUCING KINASE” (priority 2022, published 2025).

Tests used:
[1] = biological target: Recombinant Human NF-kappaB-Inducing Kinase (NIK/MAP3K14) (Homo sapiens, UniProt Q99558); experiment: Inhibition of auto-phosphorylation of recombinant human NIK/MAP3K14 activity (AlphaScreen); type: biochemical; details: 5 μM ATP, 1 nM NIK, average if tested more than once
Method in brief: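 GST-tagged NIK (1 nM) auto-phosphorylation with 5 μM ATP, 2 h at 25 °C, pH 7.5 Tris buffer, 0.7% DMSO; stopped with anti-phospho-IKK Ser176/180 antibody and read by AlphaScreen. Signal normalized to full-activity and no-enzyme/no-ATP controls; IC50 from sigmoidal fit of % inhibition vs log concentration.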

[2] = tested on: p-IKKa levels in L363 (NIK translocated multiple myeloma) cells; experiment: Effect of compounds on p-IKKa levels in L363 (NIK translocated multiple myeloma) cells (AlphaLISA SureFire Ultra p-IKKa Ser176/180); type: cell-based, human; details: Homo sapiens, L-363, p-IKKa levels in L363 cells; average if tested more than once; read-out: Assay 2 IC50
Method in brief: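 L363 multiple myeloma cells, BAFF-stimulated overnight (250 ng/ml), then 6 h at 37 °C with compound (11-point 1:3 series, 0.3% DMSO) plus BAFF and 10 μM MG132. p-IKKa Ser176/180 read by AlphaLISA SureFire Ultra; IC50 from sigmoidal fit normalised to stimulated and unstimulated controls.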

Recombinant Human NF-kappaB-Inducing Kinase (NIK/MAP3K14), sequence (Q99558 whole entry): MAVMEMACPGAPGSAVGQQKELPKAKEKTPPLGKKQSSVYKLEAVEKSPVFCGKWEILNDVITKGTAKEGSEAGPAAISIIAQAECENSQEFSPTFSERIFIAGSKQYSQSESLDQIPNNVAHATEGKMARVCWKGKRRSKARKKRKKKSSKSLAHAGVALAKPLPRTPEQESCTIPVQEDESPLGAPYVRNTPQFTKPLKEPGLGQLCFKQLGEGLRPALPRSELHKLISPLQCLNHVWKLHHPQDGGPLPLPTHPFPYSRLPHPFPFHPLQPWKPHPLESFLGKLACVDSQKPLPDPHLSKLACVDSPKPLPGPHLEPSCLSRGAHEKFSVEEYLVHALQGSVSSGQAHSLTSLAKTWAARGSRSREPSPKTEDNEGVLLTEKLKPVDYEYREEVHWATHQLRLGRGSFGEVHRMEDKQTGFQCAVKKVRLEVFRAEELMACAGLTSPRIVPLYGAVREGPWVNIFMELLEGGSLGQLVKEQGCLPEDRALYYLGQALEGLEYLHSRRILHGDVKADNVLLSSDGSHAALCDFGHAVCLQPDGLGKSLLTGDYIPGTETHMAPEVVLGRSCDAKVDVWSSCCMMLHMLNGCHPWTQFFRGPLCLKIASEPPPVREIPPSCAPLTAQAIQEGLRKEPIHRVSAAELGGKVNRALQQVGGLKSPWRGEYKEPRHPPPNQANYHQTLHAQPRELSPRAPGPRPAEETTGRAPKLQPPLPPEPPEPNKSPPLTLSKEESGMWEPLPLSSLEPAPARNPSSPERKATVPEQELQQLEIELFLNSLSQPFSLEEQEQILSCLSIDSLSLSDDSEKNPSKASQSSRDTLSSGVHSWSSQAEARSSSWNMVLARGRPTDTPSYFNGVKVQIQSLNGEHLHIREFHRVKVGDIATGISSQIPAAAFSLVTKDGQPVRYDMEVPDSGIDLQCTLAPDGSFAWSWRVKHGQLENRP

CN1CC[C@@](O)(c2cccc(-c3nc(-c4ccnc(Nc5cn(C)nc5OC5CCC5)n4)cs3)c2)C1=O [Example 97, (R)-3-(3-(4-(2-((3-cyclobutoxy-1-methyl-1H-pyrazol-4-yl)amino)pyrimidin-4-yl)thiazol-2-yl)phenyl)-3-hydroxy-1-methylpyrrolidin-2-one]
IC50 [1]: < 0.1 µM
IC50 [2]: < 0.1 µM

CN1CC[C@@](O)(c2cccc(-c3nc(-c4ccnc(Nc5cn(C)nc5OCC(F)(F)F)n4)cs3)c2)C1=O [Example 98, (R)-3-hydroxy-1-methyl-3-(3-(4-(2-((1-methyl-3-(2,2,2-trifluoroethoxy)-1H-pyrazol-4-yl)amino)pyrimidin-4-yl)thiazol-2-yl)phenyl)pyrrolidin-2-one]
IC50 [1]: < 0.1 µM
IC50 [2]: < 0.1 µM

CN1CC[C@@](O)(c2cccc(-c3nc(-c4ccnc(Nc5cn(C)nc5OC(F)F)n4)cs3)c2)C1=O [Example 99, (R)-3-(3-(4-(2-((3-(difluoromethoxy)-1-methyl-1H-pyrazol-4-yl)amino)pyrimidin-4-yl)thiazol-2-yl)phenyl)-3-hydroxy-1-methylpyrrolidin-2-one]
IC50 [1]: < 0.1 µM
IC50 [2]: < 0.1 µM

CC(C)Oc1nn(C)cc1Nc1nccc(-c2csc(-c3cccc([C@]4(O)CCN(C)C4=O)c3)n2)n1 [Example 100, (R)-3-hydroxy-3-(3-(4-(2-((3-isopropoxy-1-methyl-1H-pyrazol-4-yl)amino)pyrimidin-4-yl)thiazol-2-yl)phenyl)-1-methylpyrrolidin-2-one]
IC50 [1]: < 0.1 µM
IC50 [2]: < 0.1 µM

COc1nn(CC(F)(F)F)cc1Nc1nccc(-c2csc(-c3cccc([C@]4(O)CCN(C)C4=O)c3)n2)n1 [Example 101, (R)-3-hydroxy-3-(3-(4-(2-((3-methoxy-1-(2,2,2-trifluoroethyl)-1H-pyrazol-4-yl)amino)pyrimidin-4-yl)thiazol-2-yl)phenyl)-1-methylpyrrolidin-2-one]
IC50 [1]: < 0.1 µM
IC50 [2]: < 0.1 µM

CN1CC[C@@](O)(c2cccc(-c3ccn(-c4ccnc(Nc5cn(CC(F)F)nc5OC5CC5)n4)n3)c2)C1=O [Example 102, (R)-3-(3-(1-(2-((3-cyclopropoxy-1-(2,2-difluoroethyl)-1H-pyrazol-4-yl)amino)pyrimidin-4-yl)-1H-pyrazol-3-yl)phenyl)-3-hydroxy-1-methylpyrrolidin-2-one]
IC50 [1]: < 0.1 µM
IC50 [2]: < 0.1 µM

CCn1cc(Nc2nccc(-c3csc(-c4cccc([C@]5(O)CCN(C)C5=O)c4)n3)n2)c(OC)n1 [Example 103, (R)-3-(3-(4-(2-((1-ethyl-3-methoxy-1H-pyrazol-4-yl)amino)pyrimidin-4-yl)thiazol-2-yl)phenyl)-3-hydroxy-1-methylpyrrolidin-2-one]
IC50 [1]: < 0.1 µM
IC50 [2]: 0.1 to 0.5 µM

COc1nn(C)cc1Nc1nccc(-c2csc(-c3cccc([C@]4(O)CCN(C)C4=O)c3)n2)n1 [Example 104, (R)-3-hydroxy-3-(3-(4-(2-((3-methoxy-1-methyl-1H-pyrazol-4-yl)amino)pyrimidin-4-yl)thiazol-2-yl)phenyl)-1-methylpyrrolidin-2-one]
IC50 [1]: < 0.1 µM
IC50 [2]: < 0.1 µM

Cc1cc(Nc2nccc(-c3csc(-c4cccc([C@]5(O)CCN(C)C5=O)c4)n3)n2)ncn1 [Example 106, (R)-3-hydroxy-1-methyl-3-(3-(4-(2-((6-methylpyrimidin-4-yl)amino)pyrimidin-4-yl)thiazol-2-yl)phenyl)pyrrolidin-2-one]
IC50 [1]: < 0.1 µM
IC50 [2]: > 0.501 µM

COCCn1nc(C)cc1Nc1nccc(-c2csc(-c3cccc([C@]4(O)CCN(C)C4=O)c3)n2)n1 [Example 107, (R)-3-hydroxy-3-(3-(4-(2-((1-(2-methoxyethyl)-3-methyl-1H-pyrazol-5-yl)amino)pyrimidin-4-yl)thiazol-2-yl)phenyl)-1-methylpyrrolidin-2-one]
IC50 [1]: > 0.501 µM
IC50 [2]: > 0.501 µM

CN1CC[C@@](O)(c2cccc(-c3nc(-c4ccnc(N[C@H]5CCC[C@@H]5O)n4)cs3)c2)C1=O [Example 108, (R)-3-hydroxy-3-(3-(4-(2-(((1S,2S)-2-hydroxycyclopentyl)amino)pyrimidin-4-yl)thiazol-2-yl)phenyl)-1-methylpyrrolidin-2-one]
IC50 [1]: 0.1 to 0.5 µM
IC50 [2]: > 0.501 µM

CN1CC[C@@](O)(c2cccc(-c3nc(-c4ccnc(N[C@H]5C[C@H](O)C5)n4)cs3)c2)C1=O [Example 109, (R)-3-hydroxy-3-(3-(4-(2-(((1R,3R)-3-hydroxycyclobutyl)amino)pyrimidin-4-yl)thiazol-2-yl)phenyl)-1-methylpyrrolidin-2-one]
IC50 [1]: 0.1 to 0.5 µM
IC50 [2]: > 0.501 µM

Cc1ncc(CNc2nccc(-c3csc(-c4cccc([C@]5(O)CCN(C)C5=O)c4)n3)n2)o1 [Example 110, (R)-3-hydroxy-1-methyl-3-(3-(4-(2-(((2-methyloxazol-5-yl)methyl)amino)pyrimidin-4-yl)thiazol-2-yl)phenyl)pyrrolidin-2-one]
IC50 [1]: < 0.1 µM
IC50 [2]: > 0.501 µM

CN1CC[C@@](O)(c2cccc(-c3nc(-c4ccnc(NCc5ncco5)n4)cs3)c2)C1=O [Example 111, (R)-3-hydroxy-1-methyl-3-(3-(4-(2-((oxazol-2-ylmethyl)amino)pyrimidin-4-yl)thiazol-2-yl)phenyl)pyrrolidin-2-one]
IC50 [1]: < 0.1 µM
IC50 [2]: > 0.501 µM

CC(Nc1nccc(-c2csc(-c3cccc([C@]4(O)CCN(C)C4=O)c3)n2)n1)c1ccn(C)n1 (stereo partly drawn) [Example 112, (R)-3-hydroxy-1-methyl-3-(3-(4-(2-(((R,S)-1-(1-methyl-1H-pyrazol-3-yl)ethyl)amino)pyrimidin-4-yl)thiazol-2-yl)phenyl)pyrrolidin-2-one]
IC50 [1]: < 0.1 µM
IC50 [2]: > 0.501 µM

Cc1cc(CNc2nccc(-c3csc(-c4cccc([C@]5(O)CCN(C)C5=O)c4)n3)n2)n[nH]1 [Example 113, (R)-3-hydroxy-1-methyl-3-(3-(4-(2-(((3-methyl-1H-pyrazol-5-yl)methyl)amino)pyrimidin-4-yl)thiazol-2-yl)phenyl)pyrrolidin-2-one]
IC50 [1]: < 0.1 µM
IC50 [2]: > 0.501 µM

Cc1ccnc(CNc2nccc(-c3csc(-c4cccc([C@]5(O)CCN(C)C5=O)c4)n3)n2)n1 [Example 114, (R)-3-hydroxy-1-methyl-3-(3-(4-(2-(((4-methylpyrimidin-2-yl)methyl)amino)pyrimidin-4-yl)thiazol-2-yl)phenyl)pyrrolidin-2-one]
IC50 [1]: 0.1 to 0.5 µM
IC50 [2]: > 0.501 µM

CN1CC[C@@](O)(c2cccc(-c3nc(-c4ccnc(NC5[C@@H]6COC[C@@H]56)n4)cs3)c2)C1=O (stereo partly drawn) [Example 115, (R)-3-(3-(4-(2-(((1R,5R)-3-oxabicyclo[3.1.0]hexan-6-yl)amino)pyrimidin-4-yl)thiazol-2-yl)phenyl)-3-hydroxy-1-methylpyrrolidin-2-one]
IC50 [1]: 0.1 to 0.5 µM
IC50 [2]: > 0.501 µM

CC(C)Cn1cnc(Nc2nccc(-c3csc(-c4cccc([C@]5(O)CCN(C)C5=O)c4)n3)n2)c1 [Example 116, (R)-3-hydroxy-3-(3-(4-(2-((1-isobutyl-1H-imidazol-4-yl)amino)pyrimidin-4-yl)thiazol-2-yl)phenyl)-1-methylpyrrolidin-2-one]
IC50 [1]: < 0.1 µM
IC50 [2]: > 0.501 µM

CN1CC[C@@](O)(c2cccc(-c3nc(-c4ccnc(Nc5cn(CCF)cn5)n4)cs3)c2)C1=O [Example 117, (R)-3-(3-(4-(2-((1-(2-fluoroethyl)-1H-imidazol-4-yl)amino)pyrimidin-4-yl)thiazol-2-yl)phenyl)-3-hydroxy-1-methylpyrrolidin-2-one]
IC50 [1]: < 0.1 µM
IC50 [2]: 0.1 to 0.5 µM
